Values after ≈ are worked out from the molar mass of the structure shown.
Legend:
Type in all cases: cell-based
[1] = test system: Staphylococcus epidermidis 835; experiment: MIC by broth microdilution, SE 835; details: Staphylococcus epidermidis, 835, read-out: MIC SE 835
Protocol: (§1) Antibacterial activity in vitro is investigated by broth microdilution method in Meuller-Hinton broth as recommended by NCCLS. All strains tested are clinical isolates either sensitive or resistant to natural glycopeptides. MIC values were determined using the CLSI-recommended broth microdilution procedure (Clinical and Laboratory Standards Institute, Methods for Dilution Antimicrobial Susceptibility Tests for Bacteria That Grow Aerobically; Approved Standard-Seventh Edition.). Automated liquid handlers (Multidrop 384, Labsystems, Helsinki, Finland; Biomek 2000 and Multimek 96, Beckman Coulter, Fullerton Calif.) were used to conduct serial dilutions and liquid transfers. The MIC value for vancomycin is given for comparison. The abbreviations for organisms tested are as follow: SA 100—Staphylococcus aureus 100 (ATCC 29213); SA 757—Staphylococcus aureus 757 (MRSA); SA 2012—Staphylococcus aureus 2012 (VISA); SE 835—Staphylococcus epidermidis 835; SE 831—Staphylococcus epidermidis 831 (MRSE); EFc 101—Enterococcus faecalis 101 (ATCC 29212); EFc 848—Enterococcus faecalis 848 (VRE, Van A); EFcm 800—Enterococcus faecium 800; EFcm 752—Enterococcus faecium 752 (VRE, Van A); SPNE 1195—Streptococcus pneumoniae 1195 (ATCC 49619); SPY 712—Streptococcus pyogenes 712.

[2] = test system: Enterococcus faecium 752 (VRE, Van A); experiment: MIC by broth microdilution, EFcm 752; details: Enterococcus faecium, VRE, read-out: MIC E FCM 752, Enterococcus faecium 752 (VRE, Van A); class symbols
Protocol: as §1

[3] = test system: Staphylococcus epidermidis 831 (MRSE); experiment: MIC by broth microdilution, SE 831; details: Staphylococcus epidermidis, MRSE, read-out: MIC SE 831
Protocol: as §1

[4] = test system: Staphylococcus aureus 757 (MRSA); experiment: MIC by broth microdilution, SA 757; details: Staphylococcus aureus, MRSA, read-out: MIC SA 757
Protocol: as §1

[5] = test system: Staphylococcus aureus 2012 (VISA); experiment: MIC by broth microdilution, SA 2012; details: Staphylococcus aureus, VISA, read-out: MIC SA 2012, Staphylococcus aureus 2012 (VISA); class symbols
Protocol: as §1

[6] = test system: Streptococcus pyogenes 712; experiment: MIC by broth microdilution, SPY 712; details: Streptococcus pyogenes, 712, read-out: MIC S PYO 712
Protocol: as §1

[7] = test system: Streptococcus pneumoniae 1195 (ATCC 49619); experiment: MIC by broth microdilution, SPNE 1195; details: Streptococcus pneumoniae, ATCC49619, read-out: MIC S PNE 1195
Protocol: as §1

[8] = test system: Enterococcus faecalis 848 (VRE, Van A); experiment: MIC by broth microdilution, EFc 848; details: Enterococcus faecalis, VRE, read-out: MIC E FC 848, Enterococcus faecalis 848 (VRE, Van A); class symbols
Protocol: as §1

[9] = test system: Enterococcus faecium 800; experiment: MIC by broth microdilution, EFcm 800; details: Enterococcus faecium, 800, read-out: MIC E FCM 800
Protocol: as §1

[10] = test system: Staphylococcus aureus 100 (ATCC 29213); experiment: MIC by broth microdilution, SA 100; details: Staphylococcus aureus, ATCC29213, read-out: MIC SA 100
Protocol: as §1

[11] = test system: Enterococcus faecalis 101 (ATCC 29212); experiment: MIC by broth microdilution, EFc 101; details: Enterococcus faecalis, ATCC29212, read-out: MIC E FC 101, Enterococcus faecalis 101 (ATCC 29212); class symbols
Protocol: as §1

Compound | MIC [1] [µg/mL] | MIC [2] [µg/mL] | MIC [3] [µg/mL] | MIC [4] [µg/mL] | MIC [5] [µg/mL] | MIC [6] [µg/mL] | MIC [7] [µg/mL] | MIC [8] [µg/mL] | MIC [9] [µg/mL] | MIC [10] [µg/mL] | MIC [11] [µg/mL]
CCCCOc1ccc(CCNC(=O)Oc2cc(O)c3c(c2)[C@@H](C(=O)O)NC(=O)[C@H]2NC(=O)[C@H](NC(=O)[C@@H]4NC(=O)[C@H](CC(N)=O)NC(=O)[C@H](NC(=O)[C@@H](CC(C)C)NC)[C@H](O)c5ccc(c(Cl)c5)Oc5cc4cc(c5O[C@@H]4O[C@H](CO)[C@@H](O)[C@H](O)[C@H]4O[C@H]4C[C@](C)(N)[C@H](O)[C@H](C)O4)Oc4ccc(cc4Cl)[C@H]2O)c2ccc(O)c-3c2)cc1 (atropisomer, axis not shown) [Compound 351] | 0.5 to 1 (≈ 0.3 to 0.599 µM) | 8 to 16 (≈ 4.79 to 9.59 µM) | 0.5 to 1 (≈ 0.3 to 0.599 µM) | 0.01 to 0.5 (≈ 0.00599 to 0.3 µM) | 4 to 8 (≈ 2.4 to 4.79 µM) | 0.01 to 0.5 (≈ 0.00599 to 0.3 µM) | 0.01 to 0.5 (≈ 0.00599 to 0.3 µM) | > 16 | 0.01 to 0.5 (≈ 0.00599 to 0.3 µM) | 0.01 to 0.5 (≈ 0.00599 to 0.3 µM) | 0.5 to 1 (≈ 0.3 to 0.599 µM)
CCCCCCc1ccc(S(=O)(=O)NCCCCCCNC(=O)Oc2cc(O)c3c(c2)[C@@H](C(=O)O)NC(=O)[C@H]2NC(=O)[C@H](NC(=O)[C@@H]4NC(=O)[C@H](CC(N)=O)NC(=O)[C@H](NC(=O)[C@@H](CC(C)C)NC)[C@H](O)c5ccc(c(Cl)c5)Oc5cc4cc(c5O[C@@H]4O[C@H](CO)[C@@H](O)[C@H](O)[C@H]4O[C@H]4C[C@](C)(N)[C@H](O)[C@H](C)O4)Oc4ccc(cc4Cl)[C@H]2O)c2ccc(O)c-3c2)cc1 (atropisomer, axis not shown) [Compound 352] | 0.01 to 0.5 (≈ 0.00551 to 0.275 µM) | 0.5 to 1 (≈ 0.275 to 0.551 µM) | 0.01 to 0.5 (≈ 0.00551 to 0.275 µM) | 0.01 to 0.5 (≈ 0.00551 to 0.275 µM) | 0.01 to 0.5 (≈ 0.00551 to 0.275 µM) | 0.01 to 0.5 (≈ 0.00551 to 0.275 µM) | 0.01 to 0.5 (≈ 0.00551 to 0.275 µM) | 2 to 4 (≈ 1.1 to 2.2 µM) | 0.01 to 0.5 (≈ 0.00551 to 0.275 µM) | 0.01 to 0.5 (≈ 0.00551 to 0.275 µM) | 0.01 to 0.5 (≈ 0.00551 to 0.275 µM)
CCOCCOCCNC(=O)Oc1cc(O)c2c(c1)[C@@H](C(=O)O)NC(=O)[C@H]1NC(=O)[C@H](NC(=O)[C@@H]3NC(=O)[C@H](CC(N)=O)NC(=O)[C@H](NC(=O)[C@@H](CC(C)C)NC)[C@H](O)c4ccc(c(Cl)c4)Oc4cc3cc(c4O[C@@H]3O[C@H](CO)[C@@H](O)[C@H](O)[C@H]3O[C@H]3C[C@](C)(N)[C@H](O)[C@H](C)O3)Oc3ccc(cc3Cl)[C@H]1O)c1ccc(O)c-2c1 (atropisomer, axis not shown) [Compound 353] | 8 to 16 (≈ 4.97 to 9.95 µM) | > 16 | 4 to 8 (≈ 2.49 to 4.97 µM) | 4 to 8 (≈ 2.49 to 4.97 µM) | > 16 | 1 to 2 (≈ 0.622 to 1.24 µM) | 0.01 to 0.5 (≈ 0.00622 to 0.311 µM) | > 16 | 2 to 4 (≈ 1.24 to 2.49 µM) | 4 to 8 (≈ 2.49 to 4.97 µM) | 4 to 8 (≈ 2.49 to 4.97 µM)
CCCCCCc1ccc(NC(=O)NCCCCCCNC(=O)Oc2cc(O)c3c(c2)[C@@H](C(=O)O)NC(=O)[C@H]2NC(=O)[C@H](NC(=O)[C@@H]4NC(=O)[C@H](CC(N)=O)NC(=O)[C@H](NC(=O)[C@@H](CC(C)C)NC)[C@H](O)c5ccc(c(Cl)c5)Oc5cc4cc(c5O[C@@H]4O[C@H](CO)[C@@H](O)[C@H](O)[C@H]4O[C@H]4C[C@](C)(N)[C@H](O)[C@H](C)O4)Oc4ccc(cc4Cl)[C@H]2O)c2ccc(O)c-3c2)cc1 (atropisomer, axis not shown) [Compound 354] | 0.01 to 0.5 (≈ 0.00557 to 0.279 µM) | 0.01 to 0.5 (≈ 0.00557 to 0.279 µM) | 0.01 to 0.5 (≈ 0.00557 to 0.279 µM) | 0.01 to 0.5 (≈ 0.00557 to 0.279 µM) | 0.5 to 1 (≈ 0.279 to 0.557 µM) | 0.01 to 0.5 (≈ 0.00557 to 0.279 µM) | 0.01 to 0.5 (≈ 0.00557 to 0.279 µM) | 2 to 4 (≈ 1.11 to 2.23 µM) | 0.01 to 0.5 (≈ 0.00557 to 0.279 µM) | 0.01 to 0.5 (≈ 0.00557 to 0.279 µM) | 0.01 to 0.5 (≈ 0.00557 to 0.279 µM)
CCCCCCCOc1ccc(S(=O)(=O)NCCCCCCNC(=O)Oc2cc(O)c3c(c2)[C@@H](C(=O)O)NC(=O)[C@H]2NC(=O)[C@H](NC(=O)[C@@H]4NC(=O)[C@H](CC(N)=O)NC(=O)[C@H](NC(=O)[C@@H](CC(C)C)NC)[C@H](O)c5ccc(c(Cl)c5)Oc5cc4cc(c5O[C@@H]4O[C@H](CO)[C@@H](O)[C@H](O)[C@H]4O[C@H]4C[C@](C)(N)[C@H](O)[C@H](C)O4)Oc4ccc(cc4Cl)[C@H]2O)c2ccc(O)c-3c2)cc1 (atropisomer, axis not shown) [Compound 355] | 0.01 to 0.5 (≈ 0.00542 to 0.271 µM) | 0.01 to 0.5 (≈ 0.00542 to 0.271 µM) | 0.01 to 0.5 (≈ 0.00542 to 0.271 µM) | 0.01 to 0.5 (≈ 0.00542 to 0.271 µM) | 0.5 to 1 (≈ 0.271 to 0.542 µM) | 0.01 to 0.5 (≈ 0.00542 to 0.271 µM) | 0.01 to 0.5 (≈ 0.00542 to 0.271 µM) | 1 to 2 (≈ 0.542 to 1.08 µM) | 0.01 to 0.5 (≈ 0.00542 to 0.271 µM) | 0.01 to 0.5 (≈ 0.00542 to 0.271 µM) | 0.01 to 0.5 (≈ 0.00542 to 0.271 µM)
